Source: patent US20080051419A1, “AMINE DERIVATIVES USEFUL AS ANTICANCER AGENTS” (PFIZER INC., priority 2006, published 2008)
Where two headings read alike, the source gives them in different places.

Molecular target: T1, Akt1 (Homo sapiens, UniProt P31749, S473D)
T1 construct: The version of Akt used in these studies lacks the pleckstrin homology (PH) domain
Assay: Akt1 kinase assay, fluorescence polarization (IMAP)
Format: biochemical
Protocol: The Akt1 kinase assay is based on the measurement of fluorescence polarization using IMAP technology (Molecular Devices Corporation #R8062). Two microliters of inhibitor compounds diluted to a concentration of 10 millimolar are added to column 2 of a polypropylene 96-well plate containing 98 microliters of 100% DMSO; the wells in columns 3-12 contain 60 microliters of 100% DMSO. The various test compounds are serially diluted 1:3 across the plate by pipetting 30 microliters of compounds into wells containing 60 microliters of 100% DMSO. Column 12 receives DMSO only and is used as a negative control for inhibition. The components of the wells are mixed and 15 microliters of each well are transferred to another 96-well plate already containing 60 microliters of reaction buffer (RB: 10 mM Tris-HCl, pH 7.5, 10 mM MgCl2, 0.1 mM EGTA, 0.01% Triton-X100 (Sigma #X-100), freshly added 1 mM DTT). After mixing, the […] reactions are assembled. First, five microliters of the above compound/reaction buffer mixture is transferred to the bottom of a 96-well black polystyrene reaction plate (Costar, #3694). Next, ten microliters of a solution containing 4 micromolar ATP and 40 nanomolar fluorescent-labeled Crosstide (Tamara-labeled […] peptide) are added. Then, 5 microliters (1.5 nanograms) of Akt protein in RB are added. The version of Akt used in these studies lacks the pleckstrin homology (PH) domain, and contains an aspartic acid residue in place of a serine residue in position 473 within the Akt1 hydrophobic motif. The Akt1 protein contains a polyhistidine tag at the amino terminus and is prephosphorylated on threonine at position 308 in order to activate latent kinase activity. Once the reaction components and inhibitors are assembled, the plates are gently tapped, covered with foil, and then incubated at ambient temperature for 30 minutes. IMAP beads (Molecular Devices) are then added (60 microliters of a 1:400 dilution of beads in RB). Plates are read on a Victor Plate Reader with the following settings: CW lamp filter: 544 nm, emission filter: 615 nm. Control values from wells lacking Akt protein are subtracted from the gross readings, and IC50 values are calculated using XLDA.

[1] = Table 4, read-out: Avg Akt kinase, μM (50% inhibition)
[2] = Table 1, concentration bins, read-out: Concentration Range at which exemplary compounds of formula I inhibit Akt kinase activity
[3] = average Akt kinase activity (IC50), read-out: Avg Akt kinase, μM (50% inhibition)

T1 sequence (P31749 118-480 S473D limits assumed, species assumed): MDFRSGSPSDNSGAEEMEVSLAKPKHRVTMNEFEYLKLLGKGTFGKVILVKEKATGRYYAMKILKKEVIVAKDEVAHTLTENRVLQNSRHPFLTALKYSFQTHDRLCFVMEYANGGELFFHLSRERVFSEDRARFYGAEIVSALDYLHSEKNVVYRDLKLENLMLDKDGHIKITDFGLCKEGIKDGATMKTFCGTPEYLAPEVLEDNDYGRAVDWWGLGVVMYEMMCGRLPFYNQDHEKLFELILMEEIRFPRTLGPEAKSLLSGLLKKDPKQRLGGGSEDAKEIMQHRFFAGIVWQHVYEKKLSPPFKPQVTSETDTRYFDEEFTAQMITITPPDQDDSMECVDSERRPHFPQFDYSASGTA

Compound	IC50 [1] [µM]	IC50 [2] [µM]	IC50 [3] [µM]
N#Cc1c[nH]c2ncnc(N3CCC(N)(COc4cccc(C(F)(F)F)c4)C3)c12 (centres unmarked) [Example 63, 4-(3-amino-3-{[3-(trifluoromethyl)phenoxy]methyl}pyrrolidin-1-yl)-7H-pyrrolo[2,3-d]pyrimidine-5-carbonitrile]	0.0641	0.0101 to 0.1	
CCc1c[nH]c2ncnc(N3CCC(N)(COc4cccc(C(F)(F)F)c4)C3)c12 (centres unmarked) [Example 64]	0.0215	0.0101 to 0.1	
CCc1c[nH]c2ncnc(N3CCC(N)(COc4cccc(C)c4)C3)c12 (centres unmarked) [Example 65, 1-(5-ethyl-7H-pyrrolo[2,3-d]pyrimidin-4-yl)-3-[(3-methylphenoxy)methyl]pyrrolidin-3-amine]	0.0948	0.0101 to 0.1	
Cc1c[nH]c2ncnc(N3CCC(N)(CCc4cccc(C(F)(F)F)c4)C3)c12 (centres unmarked) [Example 67, 1-(5-methyl-7H-pyrrolo[2,3-d]pyrimidin-4-yl)-3-{2-[3-(trifluoromethyl) -phenyl]ethyl}pyrrolidin-3-amine]		0.101 to 10	0.126
Cc1c[nH]c2ncnc(N3CCC(N)(CNC(=O)c4ccccc4)C3)c12 (centres unmarked) [Example 69, N-((3-amino-1-(5-methyl-7H-pyrrolo[2,3-d]pyrimidin-4-yl)pyrrolidin-3-yl)methyl)benzamide]		0.0101 to 0.1	0.0623
Cc1cccc(NC(=O)NCC2(N)CCN(c3ncnc4[nH]cc(C)c34)C2)c1C (centres unmarked) [Example 75, 1-{[3-amino-1-(5-methyl-7H-pyrrolo[2,3-d]pyrimidin-4-yl)pyrrolidin-3-yl]methyl}-3-(2,3-dimethylphenyl)urea]		0.101 to 10	0.185
N[C@]1(CNC(=O)c2ccc(F)cc2F)CCN(c2ncnc3[nH]cc(Cl)c23)C1 [Example 82, N-{[(3S)-3-amino-1-(5-chloro-7H-pyrrolo[2,3-d]pyrimidin-4-yl)pyrrolidin-3-yl]methyl}-2,4-difluorobenzamide]		0.00025 to 0.0025	0.00163
N[C@]1(CNC(=O)c2ccc(Cl)cc2F)CCN(c2ncnc3[nH]cc(Cl)c23)C1 [Example 84, N-{[(3S)-3-amino-1-(5-chloro-7H-pyrrolo[2,3-d]pyrimidin-4-yl)pyrrolidin-3-yl]methyl}-4-chloro-2-fluorobenzamide]		0.0101 to 0.1	0.0111
N[C@]1(CNC(=O)c2ccccc2Cl)CCN(c2ncnc3[nH]cc(Cl)c23)C1 [Example 85, N-{[(3S)-3-amino-1-(5-chloro-7H-pyrrolo[2,3-d]pyrimidin-4-yl)pyrrolidin-3-yl]methyl}-2-chlorobenzamide]		0.00251 to 0.01	0.00643
N#Cc1c[nH]c2ncnc(N3CC[C@](N)(CNC(=O)c4ccc(Cl)cc4)C3)c12 [Example 86]		0.0101 to 0.1	0.0175
Cc1c[nH]c2ncnc(N3CC[C@](N)(CNC(=O)c4cccc(F)c4F)C3)c12 [Example 87]		0.00251 to 0.01	0.00758
CCc1c[nH]c2ncnc(N3CC[C@@](N)(CNC(=O)c4cc(C)on4)C3)c12 [Example 91]		0.00251 to 0.01	0.00392
N#Cc1c[nH]c2ncnc(N3CC[C@](N)(CNC(=O)c4ccc(F)cc4)C3)c12 [Example 94]		0.00251 to 0.01	0.00923
CCCc1c[nH]c2ncnc(N3CC[C@@](N)(CNC(=O)c4cc(C)on4)C3)c12 [Example 95, N-{[(3R)-3-amino-1-(5-propyl-7H-pyrrolo[2,3-d]pyrimidin-4-yl)pyrrolidin-3-yl]methyl}-5-methylisoxazole-3-carboxamide]		0.00251 to 0.01	0.00433
N#Cc1c[nH]c2ncnc(N3CC[C@](N)(CNC(=O)c4ccc(F)cc4F)C3)c12 [Example 96, N-{[(3S)-3-amino-1-(5-cyano-7H-pyrrolo[2,3-d]pyrimidin-4-yl)pyrrolidin-3-yl]methyl}-2,4-difluorobenzamide]		0.00251 to 0.01	0.00771
Cc1c[nH]c2ncnc(N3CC[C@](N)(CNC(=O)c4ccc(F)cc4F)C3)c12 [Example 97, N-{[(3S)-3-amino-1-(5-methyl-7H-pyrrolo[2,3-d]pyrimidin-4-yl)pyrrolidin-3-yl]methyl}-2,4-difluorobenzamide]		0.00025 to 0.0025	0.000979

Continued, values first:

IC50 [1] [µM]	IC50 [2] [µM]	IC50 [3] [µM]	Compound
2.69			Cc1c[nH]c2ncnc(N3CC[C@@](N)(COc4cccc(C(F)(F)F)c4)C3)c12 [Example 62]
	0.101 to 10	0.701	Cc1c[nH]c2ncnc(N3CCC(N)(CSc4cccc(C(F)(F)F)c4)C3)c12 (centres unmarked) [Example 66, 1-(5-methyl-7H-pyrrolo[2,3-d]pyrimidin-4-yl)-3-((3-(trifluoromethyl)phenylthio)methyl) -pyrrolidin-3-amine]
	0.00251 to 0.01	0.00544	N[C@]1(CNC(=O)c2ccc(Cl)cc2)CCN(c2ncnc3[nH]cc(Cl)c23)C1 [Example 70, N—(((S)-3-amino-1-(5-chloro-7H-pyrrolo[2,3-d]pyrimidinechlorobenzamide (70)-4-yl)pyrrolidin-3-yl)methyl)-4]
	0.00251 to 0.01	0.00797	Cc1c[nH]c2ncnc(N3CC[C@](N)(CNC(=O)c4ccccc4Cl)C3)c12 [Example 71, N—(((S)-3-amino-1-(5-methyl-7H-pyrrolo[2,3-d]pyrimidin-4-yl)pyrrolidin-3-yl)methyl)-2-chlorobenzamide]
	0.00025 to 0.0025	0.000269	CCc1c[nH]c2ncnc(N3CC[C@](N)(CNC(=O)c4ccc(F)cc4F)C3)c12 [Example 73, N-{[(3S)-3-amino-1-(5-ethyl-7H-pyrrolo[2,3-d]pyrimidin-4-yl)pyrrolidin-3-yl]methyl}-2,4-difluorobenzamide]
	0.0101 to 0.1	0.0114	Cc1c[nH]c2ncnc(N3CC[C@](N)(CNC(=O)c4ccc(Cl)cc4)C3)c12 [Example 74, (S)—N-((3-amino-1-(5-methyl-7H-pyrrolo[2,3-d]pyrimidin-4-yl)pyrrolidin-3-yl)methyl)-4-chlorobenzamide]
	0.101 to 10	0.523	COCCN(CC1(N)CCN(c2ncnc3[nH]cc(C)c23)C1)C(=O)Nc1ccccc1 (centres unmarked) [Example 76, 1-{[3-amino-1-(5-methyl-7H-pyrrolo[2,3-d]pyrimidin-4-yl)pyrrolidin-3-yl]methyl}-1-(2-methoxyethyl)-3-phenylurea]
	0.101 to 10	0.177	Cc1c[nH]c2ncnc(N3CCC(N)(CNS(=O)(=O)c4ccccc4)C3)c12 (centres unmarked) [Example 77, N-{[3-amino-1-(5-methyl-7H-pyrrolo[2,3-d]pyrimidin-4-yl)pyrrolidin-3-yl]methyl}benzenesulfonamide]
	0.00251 to 0.01	0.00267	N[C@]1(CNC(=O)c2ccc(F)cc2)CCN(c2ncnc3[nH]cc(Cl)c23)C1 [Example 78, N-{[(3S)-3-amino-1-(5-chloro-7H-pyrrolo[2,3-d]pyrimidin-4-yl)pyrrolidin-3-yl]methyl}-4-fluorobenzamide]
	0.00251 to 0.01	0.00377	Cc1cc(C(=O)NC[C@]2(N)CCN(c3ncnc4[nH]cc(Cl)c34)C2)no1 [Example 79]
	0.00251 to 0.01	0.00424	N[C@]1(CNC(=O)c2ccccc2F)CCN(c2ncnc3[nH]cc(Cl)c23)C1 [Example 80, N-{[(3S)-3-amino-1-(5-chloro-7H-pyrrolo[2,3-d]pyrimidin-4-yl)pyrrolidin-3-yl]methyl}-2-fluorobenzamide]
	0.00251 to 0.01	0.00346	N[C@]1(CNC(=O)c2cccc(F)c2F)CCN(c2ncnc3[nH]cc(Cl)c23)C1 [Example 81, N-{[(3S)-3-amino-1-(5-chloro-7H-pyrrolo[2,3-d]pyrimidin-4-yl)pyrrolidin-3-yl]methyl}-2,3-difluorobenzamide]
	0.00251 to 0.01	0.00915	N[C@]1(CNC(=O)c2ccc(Cl)c(F)c2)CCN(c2ncnc3[nH]cc(Cl)c23)C1 [Example 83, N-{[(3S)-3-amino-1-(5-chloro-7H-pyrrolo[2,3-d]pyrimidin-4-yl)pyrrolidin-3-yl]methyl}-4-chloro-3-fluorobenzamide]
	0.00025 to 0.0025	0.0018	CCc1c[nH]c2ncnc(N3CC[C@](N)(CNC(=O)c4ccc(Cl)cc4)C3)c12 [Example 88]
	0.00251 to 0.01	0.00278	CCc1c[nH]c2ncnc(N3CC[C@](N)(CNC(=O)c4cccc(F)c4F)C3)c12 [Example 89]
	0.0101 to 0.1	0.0395	N#Cc1c[nH]c2ncnc(N3CC[C@](N)(CNC(=O)c4cccc(F)c4F)C3)c12 [Example 90]
	0.00025 to 0.0025	0.00191	CCc1c[nH]c2ncnc(N3CC[C@](N)(CNC(=O)c4ccc(F)cc4)C3)c12 [Example 93]
